The structures appear in SMILES notation. pKd: −log10 of the molar value. Numbered stars: 1 amine (or outer) side, 2 acyl side, 3 side chain; on linkers, the order of the positions; unused ones are H or OH. Bridge positions count the residues as written; N and C are the ends. Square brackets hold non-standard residues; d marks the D form. Peptide text beside a SMILES is read from it. X1 = O=C([C@@]1(N[*:1])CCc2ccccc2C1)[*:2]; Atc(2S) = N[C@@]1(C(=O)O)CCc2ccccc2C1; Mpa = O=C(O)CCS; Sar = CNCC(=O)O

One assay deals with Vasopressin V2 receptor (Rattus norvegicus, UniProt Q00788). The assay can be described thus: Compound was evaluated for its dissociation constant (Kd) to rat kidney Vasopressin V2 receptor.
The next assay addresses Vasopressin V1 receptor (Rattus norvegicus, UniProt P48974+P30560). The assay can be described thus: Compound was evaluated for its dissociation constant (Kd) to rat liver Vasopressin V1 receptor.
The target in assay [1] is Oxytocin receptor (Cavia porcellus). As to the kind of experiment: Compound was evaluated for its dissociation constant (Kd) to guinea pig myometrial Oxytocin receptor.

Chain of Vasopressin V2 receptor (Q00788 whole entry): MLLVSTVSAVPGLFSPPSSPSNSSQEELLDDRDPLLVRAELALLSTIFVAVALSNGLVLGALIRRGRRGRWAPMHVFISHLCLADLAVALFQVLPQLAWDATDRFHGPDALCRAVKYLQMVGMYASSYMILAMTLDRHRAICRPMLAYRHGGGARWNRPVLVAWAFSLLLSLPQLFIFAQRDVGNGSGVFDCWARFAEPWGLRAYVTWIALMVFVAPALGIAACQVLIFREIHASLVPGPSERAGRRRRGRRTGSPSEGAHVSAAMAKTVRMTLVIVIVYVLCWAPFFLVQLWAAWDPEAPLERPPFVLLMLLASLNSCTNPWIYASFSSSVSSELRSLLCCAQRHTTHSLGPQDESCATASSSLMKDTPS

In the case of `CC[C@H](C)[C@@H]1NC(=O)[C@@H](Cc2ccccc2)NC(=O)CCSSC[C@@H](C(=O)N(C)CC(=O)N[C@@H](CCCNC(=N)N)C(=O)NCC(N)=O)NC(=O)[C@H](CC(N)=O)NC(=O)[C@H](CCC(N)=O)NC1=O`, the pKd on Vasopressin V2 receptor is 6.38. `CC[C@H](C)[C@@H]1NC(=O)[C@@H]2c3[nH]c4ccccc4c3CCN2C(=O)CCSSC[C@H](C(=O)N(C)CC(=O)N[C@@H](CCCN=C(N)N)C(=O)NCC(N)=O)NC(=O)[C@H](CC(N)=O)NC(=O)[C@H](CCC(N)=O)NC1=O` gave a pKd at Vasopressin V2 receptor below 4.00. Besides, the Kd at Vasopressin V1 receptor was 17.8 nM. On to `CC[C@H](C)[C@@H]1NC(=O)[C@@H](Cc2c[nH]c3ccccc23)NC(=O)CC2(CCCCC2)SSC[C@@H](C(=O)N(C)CC(=O)N[C@@H](CCCNC(=N)N)C(=O)NCC(N)=O)NC(=O)[C@H](CC(N)=O)NC(=O)[C@H](CCC(N)=O)NC1=O`, for which the pKd on Vasopressin V2 receptor was 8.52; in assay [1], 8.22. On to `CC[C@H](C)[C@@H]1NC(=O)[C@@H](Cc2c[nH]c3ccccc23)NC(=O)CCSSC[C@@H](C(=O)N(C)CC(=O)N[C@@H](CCCNC(=N)N)C(=O)NCC(N)=O)NC(=O)[C@H](CC(N)=O)NC(=O)[C@H](CCC(N)=O)NC1=O`, for which, at Vasopressin V2 receptor, the pKd is 5.30. The Kd on Vasopressin V1 receptor is 888 nM. In the case of `CC[C@H](C)[C@@H]1NC(=O)[C@@]2(CCc3ccccc3C2)NC(=O)CCSSC[C@@H](C(=O)N(C)CC(=O)N[C@@H](CCCN=C(N)N)C(=O)NCC(N)=O)NC(=O)[C@H](CC(N)=O)NC(=O)[C@H](CCC(N)=O)NC1=O` ([Mpa][Atc(2S)]IQNC[Sar]RG-NH2; disulfide 1-6), at Vasopressin V2 receptor, the pKd is 5.64. In addition, the Kd on Vasopressin V1 receptor came out at 17600 nM. The corresponding values for `CC[C@H](C)[C@@H]1NC(=O)[C@]2(CCc3ccccc3C2)NC(=O)CCSSC[C@@H](C(=O)N(C)CC(=O)N[C@@H](CCCN=C(N)N)C(=O)NCC(N)=O)NC(=O)[C@H](CC(N)=O)NC(=O)[C@H](CCC(N)=O)NC1=O` ([Mpa][X1]IQNC[Sar]RG-NH2; disulfide 1-6) are 5.27 and 2640 nM. The corresponding values for `CC[C@H](C)[C@@H]1NC(=O)[C@@H]2c3[nH]c4ccccc4c3CCN2C(=O)CCSSC[C@H](C(=O)N(C)CC(=O)N[C@@H](CCCN=C(N)N)C(=O)NCC(N)=O)NC(=O)[C@H](CC(N)=O)NC(=O)[C@H](CCC(N)=O)NC1=O` (single isomer, unassigned) are below 4.00 and 63.5 nM.

The record behind these values is ChEMBL document CHEMBL1132683 (Bioorg Med Chem Lett, 1999).
